From PubChem BioAssay (NCI)
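Protocol summary: plate cells (96-well), add compound at 5 concentrations, incubate 48 h, interpolate endpoints linearly. TGI marks complete inhibition of growth.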

Experiments:
Assay in all cases: growth of human tumour cells (NCI), 48 h
MALME-3M melanoma = system: MALME-3M melanoma
LOX IMVI melanoma = system: LOX IMVI melanoma
ACHN renal = system: ACHN renal
SK-OV-3 ovarian = system: SK-OV-3 ovarian
HCT-15 colon = system: HCT-15 colon
PC-3 prostate = system: PC-3 prostate
T-47D breast = system: T-47D breast
TK-10 renal = system: TK-10 renal
UACC-257 melanoma = system: UACC-257 melanoma
SNB-75 CNS = system: SNB-75 CNS
NCI/ADR-RES ovarian = system: NCI/ADR-RES ovarian
NCI-H460 lung = system: NCI-H460 lung
OVCAR-8 ovarian = system: OVCAR-8 ovarian
CAKI-1 renal = system: CAKI-1 renal
SK-MEL-5 melanoma = system: SK-MEL-5 melanoma
COLO 205 colon = system: COLO 205 colon
UACC-62 melanoma = system: UACC-62 melanoma
HT29 colon = system: HT29 colon
OVCAR-4 ovarian = system: OVCAR-4 ovarian
DU-145 prostate = system: DU-145 prostate
K-562 leukemia = system: K-562 leukemia
RPMI-8226 leukemia = system: RPMI-8226 leukemia
UO-31 renal = system: UO-31 renal
A549 NSCLC = system: A549 NSCLC
NCI-H226 lung = system: NCI-H226 lung
MOLT-4 leukemia = system: MOLT-4 leukemia
HOP-92 NSCLC = system: HOP-92 NSCLC
M14 melanoma = system: M14 melanoma
SW-620 colon = system: SW-620 colon
HCT-116 colon = system: HCT-116 colon
SR leukemia = system: SR leukemia
SK-MEL-28 melanoma = system: SK-MEL-28 melanoma
MDA-MB-435 = system: MDA-MB-435
HOP-62 NSCLC = system: HOP-62 NSCLC
MDA-N = system: MDA-N
EKVX NSCLC = system: EKVX NSCLC
SNB-19 CNS = system: SNB-19 CNS
OVCAR-5 ovarian = system: OVCAR-5 ovarian
SF-268 CNS = system: SF-268 CNS
SF-295 CNS = system: SF-295 CNS
HS 578T breast = system: HS 578T breast
BT-549 breast = system: BT-549 breast
786-0 renal = system: 786-0 renal
NCI-H522 lung = system: NCI-H522 lung
OVCAR-3 ovarian = system: OVCAR-3 ovarian
NCI-H23 lung = system: NCI-H23 lung
SN12C renal = system: SN12C renal
HL-60(TB) leukemia = system: HL-60(TB) leukemia
SK-MEL-2 melanoma = system: SK-MEL-2 melanoma
IGROV1 ovarian = system: IGROV1 ovarian
MCF7 breast = system: MCF7 breast
KM12 colon = system: KM12 colon
CCRF-CEM leukemia = system: CCRF-CEM leukemia
RXF 393 renal = system: RXF 393 renal
HCC-2998 colon = system: HCC-2998 colon
SF-539 CNS = system: SF-539 CNS
U251 CNS = system: U251 CNS
A498 renal = system: A498 renal
MDA-MB-231 breast = system: MDA-MB-231 breast

Measured: TGI

CC1(C)C(OC(=O)c2ccccc2)C[C@]23CCC[C@](C)(C[C@@H](O)C12)C3 (stereo not given in full)
29.1 µM: HCT-116 colon
91.6 µM: TK-10 renal
33.6 µM: COLO 205 colon
32.1 µM: KM12 colon
27.9 µM: SW-620 colon
31.4 µM: HT29 colon | NCI-H522 lung
36.8 µM: MDA-N | EKVX NSCLC
28.1 µM: PC-3 prostate | SF-295 CNS
59.5 µM: SF-268 CNS
52.4 µM: DU-145 prostate
37.5 µM: NCI-H226 lung
36.2 µM: OVCAR-8 ovarian
34 µM: NCI-H23 lung
36.3 µM: IGROV1 ovarian
37.1 µM: HCT-15 colon
> 100 µM: SK-OV-3 ovarian | RPMI-8226 leukemia | SR leukemia | HL-60(TB) leukemia
35.7 µM: 786-0 renal
34.6 µM: SN12C renal
25.8 µM: SK-MEL-5 melanoma
35.6 µM: UO-31 renal
46.7 µM: NCI/ADR-RES ovarian
35.5 µM: UACC-257 melanoma
37.4 µM: CCRF-CEM leukemia
38.9 µM: LOX IMVI melanoma | M14 melanoma
38.5 µM: MALME-3M melanoma
30.3 µM: BT-549 breast
28.6 µM: OVCAR-5 ovarian
31.9 µM: ACHN renal
35.8 µM: SK-MEL-2 melanoma
32.2 µM: MDA-MB-435
63.4 µM: HOP-62 NSCLC
29 µM: UACC-62 melanoma
40.8 µM: CAKI-1 renal
54.8 µM: K-562 leukemia
34.8 µM: SNB-75 CNS
30.6 µM: MCF7 breast
33.7 µM: MOLT-4 leukemia
40.4 µM: HS 578T breast
47.8 µM: SNB-19 CNS
29.8 µM: SK-MEL-28 melanoma
31.3 µM: NCI-H460 lung
46.6 µM: OVCAR-4 ovarian
32.5 µM: HOP-92 NSCLC
43.7 µM: T-47D breast
34.1 µM: A549 NSCLC
78.9 µM: OVCAR-3 ovarian

O=C(O)C1CCCN1C(=O)c1cc(Cl)ccn1 (stereo not given)
not listed: SK-OV-3 ovarian | MDA-MB-231 breast
> 100 µM: all other assays above

NNC1=N/C(=C\c2ccccc2O)C(=O)N1
51.9 µM: CCRF-CEM leukemia
89.4 µM: T-47D breast
49.6 µM: HL-60(TB) leukemia
77.3 µM: COLO 205 colon
not listed: OVCAR-4 ovarian | SR leukemia | MCF7 breast | HCC-2998 colon
> 100 µM: all other assays above
